{
  "source": "paper PMC7212882",
  "about": "“Efficacy and pharmacodynamics of niraparib in BRCA-mutant and wild-type intracranial triple-negative breast cancer murine models” (Neuro-oncology Advances, 2019)",
  "key": {"MDA-MB-231Br": {"test_system": "MDA-MB-231Br", "settings": "intracranial MDA-MB-231Br", "experimental": "(§1) All animal studies protocols were approved by the University of North Carolina (UNC), Chapel Hill Institutional Animal Care and Use Committee, executed by the UNC Animal Studies Core, and performed as described previously.[23],[27] For IC injections, cells were harvested in log-phase growth and suspended in Hank's Balanced Salt Solution + 0.5% FBS. Eight- to 10-week Foxn1 nu/nu female mice (UNC Animal Studies Core) were implanted with 200 000 cells/5 µl of suspension through stereotactic IC injection in the right striatum. Animal weights were collected from injection to death 3 times weekly. To determine tumor volumes, mice were anesthetized, injected intraperitoneally with D-luciferin dissolved in phosphate-buffered saline (150 mg/kg; Caliper Life Sciences, Hopkinton, MA), and then imaged by IVIS Lumina camera (Caliper Life Sciences). Images were analyzed with Living Image 4.0 software (Caliper Life Sciences). All values were corrected for background and recorded as photons/s.\n(§2) For efficacy studies, mice were given a daily oral gavage of 50 mg/kg niraparib or vehicle (0.5% methylcellulose). To determine median survival, animals were sacrificed when weights decreased […] of an individual mouse’s maximum weight. For pharmacodynamic and pharmacokinetic studies, mice were grouped and treated as in efficacy studies for 2 weeks. At 4 h from last niraparib dose, IC tumor, peri-tumoral tissue (2 mm around the perimeter of a tumor), and contralateral brain were dissected, snap frozen, and stored frozen for each mouse and stored at –80°C.\n(§3) The Kaplan–Meier method and log-rank test were used to estimate and compare median survival between treatment groups.\n(§4) Both fold change in tumor volumes and weight over time were determined relative to treatment start date. Linear mixed models, with a random intercept and slope, were used to evaluate changes over time, overall and between groups (SAS, v9.3)"}, "MDA-MB-436 [1]": {"test_system": "MDA-MB-436", "experimental": "as §1, §2, §3, §4"}, "SUM149 [2]": {"test_system": "SUM149", "experimental": "as §1, §2, §3, §4"}, "PARP [3]": {"test_system": "PARP", "settings": "in vivo, niraparib daily 2 weeks", "experimental": "as §2, with “For efficacy studies, treatment started at day 7 for MDA-MB-231Br, day 14 for SUM149, and day 14 for MDA-MB-436. […] For efficacy” for “For efficacy”\n(§5) 25–50 mg of tumor tissue were homogenized per protocol, and lysates were used to quantify PAR (pg/ml) using a chemiluminescent enzyme-linked immunosorbent assay (ELISA) in comparison to provided standards (Trevigen, HT PARP in vivo Pharmacodynamic Assay II, #4520-096-K). PAR values were normalized across models to 100 µg of lysate.\n(§6) A 2-way ANOVA with Tukey’s test and P-value correction for multiple comparisons was used to compare tissue levels of niraparib (pharmacokinetics) or PAR (pharmacodynamics). A t-test was used to compare PAR levels in MDA-MB-436 cells treated in vitro (GraphPad Prism, v7.04)"}, "PARP [4]": {"test_system": "PARP", "settings": "MDA-MB-436 cells in vitro; vehicle 3821.1; P = .034", "experimental": "as §5, §6"}, "[5]": {"settings": "mouse, in vivo"}, "PARP1/2": {"test_system": "PARP1/2", "settings": "read-out: in vitro IC50s; dual PARP1/2 inhibitor; cited from earlier work"}, "[6]": {"test_system": "cells with BRCA1/BRCA2 deficiencies", "settings": "read-out: in vitro CC50; cited from earlier work"}, "SUM149 [7]": {"test_system": "SUM149", "settings": "read-out: 5–7 day CC50; cited from earlier work"}, "MDA-MB-436 [8]": {"test_system": "MDA-MB-436", "settings": "read-out: 5–7 day CC50; cited from earlier work"}, "MDA-MB-436 [9]": {"test_system": "MDA-MB-436", "settings": "subcutaneous flank model, female nude mice, 100 mg/kg once daily or 50 mg/kg twice daily; cited from earlier work"}},
  "note": "Read-outs that look alike come from different tables or passages of the source. Marks after values point to notes of the source that are not given here.",
  "data": [
    {"smiles": "NC(=O)c1cccc2cn(-c3ccc([C@@H]4CCCNC4)cc3)nc12", "note": "[niraparib, 2-{4-[(3S)-piperidin-3-yl]phenyl}-2H-indazole-7-carboxamide]", "values": [
      {"measurement": "median survival", "setting": "MDA-MB-231Br; 50 mg/kg daily oral gavage, P = .21 vs vehicle (23 days)", "value": 22, "unit": "days"},
      {"measurement": "weight changes vs vehicle", "setting": "MDA-MB-231Br; 50 mg/kg daily, P = .21", "value": "did not differ significantly"},
      {"measurement": "tumor volumes measured by luciferase activity vs vehicle", "setting": "MDA-MB-231Br; 50 mg/kg daily, P = .7", "value": "did not differ significantly"},
      {"measurement": "body weight", "setting": "MDA-MB-436 [1]; intracranial MDA-MB-436, 50 mg/kg daily, control mice lost weight, P < .0001", "value": "maintained normal weight"},
      {"measurement": "mice alive at day 70", "setting": "MDA-MB-436 [1]; intracranial MDA-MB-436, 50 mg/kg daily, day 70, end of study", "value": 100, "unit": "%"},
      {"measurement": "suppression of tumor bioluminescence", "setting": "MDA-MB-436 [1]; intracranial MDA-MB-436, 50 mg/kg daily, for the extent of the experiment", "value": "greater than 90%"},
      {"measurement": "increase in median survival", "setting": "MDA-MB-436 [1]; intracranial MDA-MB-436, 50 mg/kg daily, study ended day 70, untreated median 50 days, P < .0001", "value": "at least 20 days"},
      {"measurement": "increase over untreated median survival", "setting": "MDA-MB-436 [1]; intracranial MDA-MB-436, 50 mg/kg daily, untreated median 50 days", "value": "more than 40%"},
      {"measurement": "average tumor bioluminescence", "setting": "MDA-MB-436 [1]; intracranial MDA-MB-436, day 35, after 3 weeks of treatment, control 1.15 × 10^9, P < .0001", "value": "9.56 × 10^7 photons/s"},
      {"measurement": "median survival", "setting": "SUM149 [2]; intracranial SUM149, 50 mg/kg daily oral gavage, P = .30 vs vehicle (33 days)", "value": 34, "unit": "days"},
      {"measurement": "tumor volumes measured by luciferase activity vs vehicle", "setting": "SUM149 [2]; intracranial SUM149, 50 mg/kg daily, P = .06", "value": "did not differ significantly"},
      {"measurement": "weight changes vs vehicle", "setting": "SUM149 [2]; intracranial SUM149, 50 mg/kg daily, P = .14", "value": "did not differ significantly"},
      {"measurement": "PAR levels, mean", "setting": "PARP [3]; intracranial MDA-MB-436 tumors, vehicle 195.2, P = .99", "value": "145.7 picogram PAR per microgram tissue"},
      {"measurement": "PAR levels, mean", "setting": "PARP [3]; intracranial SUM149 tumors, vehicle 4054.5, P = .0027", "value": "433.1* picogram PAR per microgram tissue"},
      {"measurement": "PAR levels, mean", "setting": "PARP [4]", "value": "248.2* picogram PAR per microgram tissue"},
      {"measurement": "tolerability", "setting": "[5]", "value": "well tolerated"},
      {"measurement": "IC50", "setting": "PARP1/2", "value": "[…]"},
      {"measurement": "CC50", "setting": "[6]", "value": "0.01 to 0.1", "unit": "µM"},
      {"measurement": "CC50", "setting": "SUM149 [7]", "value": 0.024, "unit": "µM"},
      {"measurement": "CC50", "setting": "MDA-MB-436 [8]", "value": 0.018, "unit": "µM"},
      {"measurement": "in vivo tumor growth", "setting": "MDA-MB-436 [9]", "value": "inhibited"}
    ]}
  ]
}
